Assay results as given in patent US20240240224A1, “FLUORESCENT D-TYPE AMINO ACID METABOLISM MARKER-BASED METHOD FOR DETECTING ANTIBACTERIAL DRUG SENSITIVITY TEST” (priority 2020, published 2024).
In brackets after ≈: the same amount, converted by molar mass.

Legend:
Ec ATCC 25922 [1] = assay: BMD susceptibility test; format: cell-based, Escherichia coli; settings: unit assumed
Pa ATCC 27853 = assay: FaAST (FDAA metabolic labeling); format: cell-based, Pseudomonas aeruginosa; settings: unit assumed
Procedure: (§1) The specific experimental steps are as follows: • 1. Take the colony to be tested that has been cultured overnight on the plate and fully mix it in normal saline to make a uniform bacterial solution. Dilute it into CAMHB medium to make a bacterial solution with OD600=0.05. • 2. Add 45 μl antibiotic solutions to be tested of different concentrations to 96-well plates (see Table 3 for antibiotic concentration gradient settings). • 3. Add 50 μl of bacterial solution prepared in Step 1 to the 96-well plate and mix well. • 4.5 μl of 10 mM Cy5-DAA probe was added to each well (final concentration was 0.15 mM, and its structure was shown in FIG. 1). After mixing, the probe was incubated for 2 hours in the dark. • 5. After dilution with 200 μl PBS solution, the fluorescence intensity of each sample was detected by flow cytometry. The flow detection results are shown in the attached FIG. 4-5, showing the curve of antibiotic concentration gradient and fluorescence intensity, and the MIC (minimum inhibitory concentration) is obtained by referring to this curve.
(§2) Antibiotic resistant strains are shown in bold in the table below.

P. aeruginosa Pa2 = assay: FaAST (FDAA metabolic labeling); format: cell-based, Pseudomonas aeruginosa; settings: unit assumed
Procedure: as §1, §2

P. aeruginosa Pa3 [2] = assay: FaAST (FDAA metabolic labeling); format: cell-based, Pseudomonas aeruginosa; settings: unit assumed
Procedure: as §1, §2

K. pneumoniae Kp6 = assay: BMD susceptibility test; format: cell-based, Klebsiella pneumoniae; settings: unit assumed
[3] = system: bacteria contained in alveolar lavage fluid; assay: Vitek 2 drug sensitivity test of alveolar lavage fluid; format: cell-based; as to Sensibility: key: S: Drug sensitive; R: Drug resistance
E. coli Ec11 [4] = assay: FaAST (FDAA metabolic labeling); format: cell-based, Escherichia coli; settings: unit assumed
How it was run: (§3)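 Bacteria diluted to OD600=0.05 in CAMHB were exposed to an antibiotic concentration series with Cy5-DAA probe […] for 2 h in the dark. Per-sample fluorescence was read by flow cytometry after PBS dilution. MIC was taken from the antibiotic concentration–fluorescence curve.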

Ec ATCC 25922 [5] = assay: FaAST (FDAA metabolic labeling); format: cell-based, Escherichia coli; settings: unit assumed
How it was run: as §3

E.coli 1146 = assay: Vitek 2 drug sensitivity test; format: cell-based, Escherichia coli; as to Sensibility: key: S: Drug sensitive; R: Drug resistance
P. aeruginosa Pa3 [6] = assay: BMD susceptibility test; format: cell-based, Pseudomonas aeruginosa; settings: unit assumed
S. aureus ATCC29213 = assay: BMD susceptibility test; format: cell-based, Staphylococcus aureus; settings: unit assumed
[7] = system: alveolar lavage fluid sample 0130, A. baumannii; assay: FaAST (FDAA) susceptibility test of patient alveolar lavage fluid; format: cell-based, Acinetobacter baumannii; settings: unit assumed
Procedure: (§4) With reference to the flow chart of the rapid detection method of antimicrobial susceptibility test based on FDAA metabolic markers shown in FIG. 3, FDAA is used for the detection of antimicrobial susceptibility test of alveolar lavage fluid. The specific experimental steps are as follows: • 1. Mix bronchoalveolar lavage fluid (BALF, 10 ml) of patients with hospital acquired pneumonia with cation regulated broth medium (CAMHB, 10 ml) of twice the concentration to prepare the bacterial fluid to be tested. • 2. Add 45 μl antibiotic solutions of different concentrations to the 96-well plate separately (see Table 1 for antibiotic concentration gradient settings). • 3. Add 50 μl of the bacterial solution prepared in step 1 to the 96-well plate and mix well. • 4. Add 5 μl of 10 mM Cy5-DAA probe (final concentration 0.15 mM, see FIG. 1 for its structure) into each well, mix well, and then cultivate in dark for 2 hours. • 5. Add 200 μl PBS solution for dilution, and then use flow cytometry to detect the fluorescence intensity of each sample.
(§5) The results of antimicrobial susceptibility test of alveolar lavage fluid of seven patients using FDAA and BMD methods are shown in the following table. The drug-resistant bacteria are shown in bold.

[8] = system: alveolar lavage fluid sample 0219, A. baumannii; assay: as above; format: cell-based, Acinetobacter baumannii; settings: unit assumed
Procedure: as §4, §5

[9] = system: alveolar lavage fluid sample 0204, A. baumannii; assay: as above; format: cell-based, Acinetobacter baumannii; settings: unit assumed
Procedure: as §4, §5

[10] = system: alveolar lavage fluid sample 0206, A. baumannii; assay: as above; format: cell-based, Acinetobacter baumannii; settings: unit assumed
Procedure: as §4, §5

[11] = system: alveolar lavage fluid sample 0203, K. pneumoniae; assay: BMD susceptibility test of patient alveolar lavage fluid; format: cell-based, Klebsiella pneumoniae; settings: unit assumed
From the text: as §5

[12] = system: alveolar lavage fluid sample 0226, K. pneumoniae; assay: as above; format: cell-based, Klebsiella pneumoniae; settings: unit assumed
From the text: as §5

E. coli Ec11 [13] = assay: BMD susceptibility test; format: cell-based, Escherichia coli; settings: unit assumed
E. coli Ec13 = assay: BMD susceptibility test; format: cell-based, Escherichia coli; settings: unit assumed
A. baumannii Ab16 = assay: BMD susceptibility test; format: cell-based, Acinetobacter baumannii; settings: unit assumed
[14] = system: bacteria contained in alveolar lavage fluid; assay: FDAA metabolic labeling susceptibility test of alveolar lavage fluid (Cy5-DAA probe); format: cell-based; settings: alveolar lavage fluid of patients with hospital acquired pneumonia, 2 hours
Procedure: as §4

S. aureus Sa22 = assay: BMD susceptibility test; format: cell-based, Staphylococcus aureus; settings: unit assumed
[15] = system: Pseudomonas aeruginosa PAE853; assay: FaAST with DAA-Cy5-2 probe; format: cell-based; settings: unit assumed
Procedure: as §4
(§6) The specific steps are the same as in Example 5. […] The minimum inhibitory concentration of antibiotics was obtained according to the fluorescence signal intensity of flow detection, and the statistical results are shown in Table 7.

[16] = system: Acinetobacter baumannii ABA16; assay: FaAST with DAA-Cy5-2 probe; format: cell-based; settings: unit assumed
Procedure: as §4, §6

[17] = system: alveolar lavage fluid sample 0203, K. pneumoniae; assay: FaAST (FDAA) susceptibility test of patient alveolar lavage fluid; format: cell-based, Klebsiella pneumoniae; settings: unit assumed
Procedure: as §4, §5

[18] = system: alveolar lavage fluid sample 0226, K. pneumoniae; assay: as above; format: cell-based, Klebsiella pneumoniae; settings: unit assumed
Procedure: as §4, §5

K. pneumoniae Kp9 = assay: BMD susceptibility test; format: cell-based, Klebsiella pneumoniae; settings: unit assumed

Structure (SMILES): C[C@H]1COc2c(N3CCN(C)CC3)c(F)cc3c(=O)c(C(=O)O)cn1c23 [Levofloxacin, levofloxacin]
- BMD (MIC) (Ec ATCC 25922 [1]): ≤ 0.25 µg/mL
- FaAST (MIC) (Pa ATCC 27853): 0.5 µg/mL
- FaAST (MIC) (P. aeruginosa Pa2): 0.5 µg/mL
- FaAST (MIC) (P. aeruginosa Pa3 [2]): 0.5 µg/mL
- BMD (MIC) (K. pneumoniae Kp6): ≤ 0.25 µg/mL
- MIC [3]: ≥ 8 µg/mL
- Sensibility [3]: R
- FaAST (MIC) (E. coli Ec11 [4]): 0.5 µg/mL
- FaAST (MIC) (Ec ATCC 25922 [5]): ≤ 0.25 µg/mL
- Sensibility (E.coli 1146): R
- MIC (E.coli 1146; Escherichia coli): ≥ 8 µg/mL
- BMD (MIC) (P. aeruginosa Pa3 [6]): 0.5 µg/mL
- BMD (MIC) (S. aureus ATCC29213): ≤ 0.25 µg/mL
- FaAST (MIC) [7]: 64 µg/mL
- FaAST (MIC) [8]: 64 µg/mL
- FaAST (MIC) [9]: 0.25 µg/mL
- FaAST (MIC) [10]: 64 µg/mL
- BMD (MIC) [11]: 0.25 µg/mL
- BMD (MIC) [12]: 1 µg/mL
- BMD (MIC) (E. coli Ec11 [13]): ≤ 0.25 µg/mL
- BMD (MIC) (E. coli Ec13): 4 µg/mL
- BMD (MIC) (A. baumannii Ab16): 16 µg/mL
- MIC, FDAA [14]: ≥32 µg/mL
- BMD (MIC) (S. aureus Sa22): 32 µg/mL
- MIC, FaAST [15]: 0.5 µg/mL (≈ 1.38 µM)
- MIC, FaAST [16]: 32 µg/mL (≈ 88.6 µM)
- FaAST (MIC) [17]: 0.25 µg/mL
- FaAST (MIC) [18]: 0.25 µg/mL
- BMD (MIC) (K. pneumoniae Kp9): 32 µg/mL
